Data: EPA's ToxRefDB 2

Legend:
rat [1] = details: Combined chronic toxicity/carcinogenicity, sprague dawley, Oral, Feed, dose end: 24 month, group: systemic
rat [2] = details: Subchronic oral toxicity in rodents, sprague dawley, Feed, dose end: 90 day
rat [3] = details: Prenatal developmental toxicity study, sprague dawley, Oral, Gavage/Intubation, dose end: 15 GD
dog [4] = details: Chronic toxicity, beagle, Oral, Capsule, dose end: 107 week, group: systemic
rat [5] = details: Multigenerational reproductive toxicity study, wistar, Oral, Feed, dose end: 2 generation
mouse [6] = details: Carcinogenicity, cd1, Oral, Feed, dose end: 104 week, group: systemic
rat [7] = details: Subchronic oral toxicity in rodents, sprague dawley, Feed, dose end: 90 day, group: systemic, systemic / clinical chemistry / albumin / albumin + systemic / in life observation / body weight / body weight gain + systemic / organ …
dog [8] = details: Chronic toxicity; beagle; Oral; Feed; dose end: 104 week; group: systemic; systemic / clinical chemistry / alanine aminotransferase (alt/sgpt) / alanine aminotransferase (alt/sgpt) + systemic / clinical chemistry / …
mouse [9] = details: Carcinogenicity, cd1, Oral, Feed, dose end: 80 week, group: systemic
rat [10] = details: Combined chronic toxicity/carcinogenicity, sprague dawley, Oral, Feed, dose end: 104 week, group: systemic
rabbit = details: Prenatal developmental toxicity study, new zealand white, Oral, Gavage/Intubation, dose end: 18 GD
[11] = systemic / pathology microscopic / thyroid gland / hyperplasia + systemic / pathology microscopic / thyroid gland / hypertrophy + systemic…
[12] = group: cholinesterase, cholinesterase / cholinesterase / cholinesterase / plasma cholinesterase (che)
[13] = group: systemic, systemic / organ weight / thyroid gland / relative to body weight + systemic / pathology microscopic / kidney / eosinophilic focus + …
[14] = group: systemic, systemic / pathology microscopic / kidney / eosinophilic focus + systemic / pathology microscopic / kidney / hyaline droplet
[15] = group: developmental, developmental / developmental malformation / bone / incomplete ossification + systemic / in life observation / body weight / fetal weight + …
[16] = group: maternal, reproductive / reproductive performance / fertility / fertility + reproductive / reproductive performance / resorptions / resorptions + …
[17] = systemic / organ weight / liver / relative to body weight
[18] = systemic / organ weight / liver / relative to body weight + systemic / clinical chemistry / alkaline phosphatase (alp/alk) / alkaline …
[19] = group: offspring, systemic / in life observation / body weight / offspring (pup) weight gain
[20] = group: parental, systemic / in life observation / body weight / body weight gain
[21] = systemic / organ weight / liver / absolute
[22] = systemic / organ weight / liver / absolute + systemic / organ weight / adrenal gland / absolute + systemic / organ weight / adrenal gland / …
[23] = systemic / organ weight / liver / absolute + systemic / organ weight / liver / relative to body weight
[24] = systemic / pathology microscopic / testes / adenoma + systemic / in life observation / body weight / body weight + systemic / in life …
[25] = group: developmental, developmental / developmental malformation / bone / incomplete ossification
[26] = group: maternal, reproductive / reproductive performance / postimplantation loss / postimplantation loss + reproductive / reproductive performance / …

CC(C)N1C(=O)N(c2ccccc2)CSC1=NC(C)(C)C [Buprofezin]
LOAEL (rat [1]; systemic / pathology microscopic / thyroid gland / hyperplasia + systemic / pathology microscopic / thyroid gland / hypertrophy): 8.7 mg/kg/day
LEL (rat [1]; [11]): 8.7 mg/kg/day
NEL (rat [1]; [11]): 0.9 mg/kg/day
NOAEL (rat [1]; [11]): 0.9 mg/kg/day
LEL (rat [2]; [12]): 362 mg/kg/day
LOAEL (rat [2]; [12]): > 362 mg/kg/day
NEL (rat [2]; [12]): 81.8 mg/kg/day
NOAEL (rat [2]; [12]): ≥ 362 mg/kg/day
LOAEL (rat [2]; [13]): 68.6 mg/kg/day
NOAEL (rat [2]; [13]): 13 mg/kg/day
LEL (rat [2]; [14]): 3.4 mg/kg/day
NEL (rat [2]; [14]): < 3.4 mg/kg/day
LEL (rat [3]; group: developmental, developmental / developmental malformation / bone / incomplete ossification + developmental / developmental malformation / bone / unossified): 200 mg/kg/day
LOAEL (rat [3]; [15]): 800 mg/kg/day
NEL (rat [3]; [15]): 50 mg/kg/day
NOAEL (rat [3]; [15]): 200 mg/kg/day
LOAEL (rat [3]; [16]): 800 mg/kg/day
NEL (rat [3]; [16]): 50 mg/kg/day
NOAEL (rat [3]; [16]): 200 mg/kg/day
LEL (rat [3]; group: maternal, systemic / in life observation / water consumption / water consumption): 200 mg/kg/day
LEL (dog [4]; [17]): 2 mg/kg/day
NEL (dog [4]; [17]): < 2 mg/kg/day
LOAEL (dog [4]; [18]): 20 mg/kg/day
NOAEL (dog [4]; [18]): 2 mg/kg/day
LEL (rat [5]; [19]): 81.5 mg/kg/day
LOAEL (rat [5]; [19]): 81.5 mg/kg/day
NEL (rat [5]; [19]): 7.89 mg/kg/day
NOAEL (rat [5]; [19]): 7.89 mg/kg/day
LEL (rat [5]; [20]): 81.5 mg/kg/day
LOAEL (rat [5]; [20]): > 81.5 mg/kg/day
NEL (rat [5]; [20]): 7.89 mg/kg/day
NOAEL (rat [5]; [20]): ≥ 81.5 mg/kg/day
LOAEL (mouse [6]; [21]): 17.4 mg/kg/day
NEL (mouse [6]; [22]): 1.82 mg/kg/day
NOAEL (mouse [6]; [22]): 1.82 mg/kg/day
LEL (mouse [6]; [23]): 17.4 mg/kg/day

CCOC1Oc2ccc(OS(C)(=O)=O)cc2C1(C)C (stereo not given) [Ethofumesate]
LEL (rat [7]): 1900 mg/kg/day
LOAEL (rat [7]): 1900 mg/kg/day
NEL (rat [7]): 190 mg/kg/day
NOAEL (rat [7]): 190 mg/kg/day
LEL (dog [8]): 619 mg/kg/day
LOAEL (dog [8]): 619 mg/kg/day
NEL (dog [8]): 109 mg/kg/day
NOAEL (dog [8]): 109 mg/kg/day
LEL (mouse [9]; [21]): 204 mg/kg/day
NEL (mouse [9]; [21]): < 204 mg/kg/day
LOAEL (mouse [9]; [23]): > 2140 mg/kg/day
NOAEL (mouse [9]; [23]): ≥ 2140 mg/kg/day
LOAEL (rat [10]; systemic / in life observation / body weight / body weight gain): 469 mg/kg/day
NOAEL (rat [10]; systemic / in life observation / body weight / body weight gain + systemic / clinical chemistry / alkaline phosphatase (alp/alk) / alkaline …): 127 mg/kg/day
LEL (rat [10]; [24]): 97 mg/kg/day
NEL (rat [10]; [24]): < 97 mg/kg/day
LEL (rabbit; [25]): 300 mg/kg/day
LOAEL (rabbit; [25]): 300 mg/kg/day
NEL (rabbit; [25]): 30 mg/kg/day
NOAEL (rabbit; [25]): 30 mg/kg/day
LEL (rabbit; [26]): 300 mg/kg/day
LOAEL (rabbit; [26]): 300 mg/kg/day
NEL (rabbit; [26]): 30 mg/kg/day
NOAEL (rabbit; [26]): 30 mg/kg/day
